The text below walks through data of patent US20170340688A1, “TITRATED EXTRACTS OF CYNARA SCOLYMUS AND USES THEREOF” (priority 2014, published 2017).

The structures appear in SMILES notation. Converted amounts (≈) assume the structure as drawn.

Data set [1] deals with T1, STAT3 (Homo sapiens, UniProt P40763). Kind of data set: Modulation of the STAT3 pathway in KARPAS cells (Western Blot, EMSA). It counts as cell-based. Particulars: extract 200 μg/ml (0.181% cynaropicrin) 2-4 hours, cynaropicrin 25 μM. The procedure:
(§1) The cells were lysed in ice for 30 min in lysis buffer NP40 (50 mM Tris-HCl pH 7.4, 150 mM NaCl, 1% NP-40, 1 mM EGTA, 1 mM EDTA) complemented with inhibitors of protease and phosphatase (5 mM PMSF, 3 mM NaF, 1 mM DTT, 1 mM NaVO4). Equal amounts of total extracts of protein (30 μg) were broken down by means of denaturing electrophoresis (SDS-PAGE) in 8% polyacrylamide gel and transferred for 2 hours on nitrocellulose membrane. The membranes were blocked with a 5% solution of milk dissolved in TBS-Tween_20 0.05% for 1 hour and incubated with the specific primary antibodies. The following primary antibodies were used: anti-beta actin (A-2228, SIGMA), anti-pSTAT3 (Tyr-705) (sc8059, Santa Cruz) and anti-STAT3 (sc7179, Santa Cruz). The secondary antibodies were peroxidase-conjugated (Santa Cruz), and ECL reagents (Amersham, GE Healthcare, Piscataway, N.J., USA) were used for the chemiluminescence.
(§2) 200 μg/ml of extract that contains 0.181% of cynaropricrin contain 1.2 μM of cynaropricrin.

Data set [2] relates to confluent prostatic adenocarcinoma cell line DU145. Kind of data set: WST-1 cell vitality assay, confluent DU145 (high levels of constitutively activated STAT3). It counts as cell-based, human. As to the method:
FIG. 7 Assay of cell vitality in the confluent prostatic adenocarcinoma cell line DU145, treated with various concentrations of artichoke extract (50-600 μg/ml) for various treatment times (24 and 48 hours) with indications of the content in cynaropicrin of the extract. The confluency of the cells increases the levels of constitutively activated STAT3, making the cells themselves largely resistant to death. The vitality was analysed using the WST-1 assay (WST-1 test, see the experimental section for the conditions). […] The squares show the trend over 24 hours and the circles show the trend at 48 hours with extract doses from 0 to 600 μg/ml and the respective content in cynaropicrin, expressed both in μg/ml and in μM, of the extract at the various concentrations (100, 200, 300, 400, 500, 600 μg/ml).
FIG. 8. […] The vitality was analysed using the WST-1 assay (WST-1 test, see the experimental section for the conditions). […]
Cytotoxicity was assayed using the WST assay (WSTs=water soluble tetrazolium salts) which utilises the ability of mitochondrial dehydrogenases to separate the tetrazole ring from the yellow-coloured WST molecule (tetrazolium salt) to give an orange formazan salt. The amount of formazan produced following the treatment of the cells with the substances being tested is measured using spectrophotometry and is proportional to the number of living cells. […]

Data set [3] relates to human carcinoma cells DU145. The experiment in a line: WST-1 cell vitality in co-treatment with chemotherapeutic agents, DU145. It counts as cell-based. As to the method: Cytotoxicity was assayed using the WST assay (WSTs=water soluble tetrazolium salts) which utilises the ability of mitochondrial dehydrogenases to separate the tetrazole ring from the yellow-coloured WST molecule (tetrazolium salt) to give an orange formazan salt. The amount of formazan produced following the treatment of the cells with the substances being tested is measured using spectrophotometry and is proportional to the number of living cells. WST-1 and in particular WST-8 (2-(2-methoxy-4-nitrophenyl)-3-(4-nitrophenyl)-5-(2,4-disulfophenyl)-2H-tetrazolium) are advantageous with respect to MTT because they reduce outside the cells, in combination with PMS as electron mediator, to produce water-soluble formazan.
The assays were carried out in parallel with variable doses of cynaropicrin in place of the extract, to compare the efficacy of the extract and that of cynaropicrin.

The test system of a further data set is GSH. The experiment in a line: Intracellular analysis of GSH (colorimetric). It counts as cell-based. Particulars: cynaropicrin 12.5, 25, 50 μM. The procedure: The intracellular concentration of GSH was evaluated by means of a colorimetric method. The cell extract, deproteinised by means of 10% trichloroacetic acid, was treated with dithio nitrobenzene (DTNB), and the quantity of TNB, which is released following the reaction with GSH, was evaluated by analysing the absorbance at 412 nm.

The test system of data set [4] is STAT3. The experiment in a line: Glutathionylation of STAT3. It counts as cell-based. To be noted: cynaropicrin 12 microM, 25 μM. As to the method: STAT3 was immunoprecipitated by incubating the protein cell extract overnight with an anti-STAT3 antibody. The proteins obtained were separated by means of SDS-PAGE in non-reducing conditions and were transferred on PVDF membrane. The glutathionylated STAT3 was recognised using an anti-GSH antibody.

Data set [5] concerns the target T1, STAT3. Kind of data set: Modulation of the STAT3 pathway in DU145 cells (Western Blot, EMSA). It counts as cell-based. Set-up: The cell line DU145 expresses pStat3 in a constitutive manner; endogenous in cells; host or cells: DU145 (human prostate carcinoma, ATCC HTB-81). Particulars: extract 200 μg/ml (0.181% cynaropicrin) 2-4 hours, cynaropicrin 25 μM. As to the method: as §1, §2

Another data set relates to MDA-MB231. The experiment in a line: Cell vitality by Trypan Blue/Countess, MDA-MB231 under normoxia. It counts as cell-based. To be noted: Homo sapiens, MDA-MB-231, 24 hours. As to the method:
Human breast cancer cell lines T47-D and MDA-MB231, human colorectal adenocarcinoma line HT-29, human prostate cancer line DU145, human uterine cervix carcinoma cell line HeLa, human hepatocarcinoma cell line HepG2 (ATCC, American Type Culture Collection) were cultivated in DMEM (BioWhittaker, Cambrex Bio Science, Belgium) in a 5% CO2 atmosphere at 37° C.
(§3) Cell vitality was assessed with a 0.4% Trypan Blue exclusion test, using an automated Countess cell counter (Life Technologies™).
The model created appears adapted for the study of plant extracts to be used in association with the classic chemotherapeutic agents. Then cells were treated with doxorubicin, with plant extracts or with their association, and cell vitality was analysed by Trypan Blue/Countess Invitrogen as described in the annexed Materials and Methods. The following treatments were performed:
MDA-MB231 cells cultivated under normoxia and under chronic hypoxia were treated for 24 hours with various concentrations of doxorubicin, elective drug in the treatment of breast cancer.

A further data set is described as follows: in vitro. It counts as cell-based, human. To be noted: human. As to the method: (§4) To establish a chronic hypoxia model, the above cell lines were cultivated in DMEM with 10% FBS in 5% CO2 and 1% O2 atmosphere, balanced with N using a multigas incubator (Ruskinn C300, Ruskinn Technology Ltd., Bridgend, United Kingdom). Cells survived through each cell passage were selected and cultivated with reoxygenation and hypoxia cycles for at least 3 months and up to 6 months.
as §3
(§5) In order to re-create a state of chronic hypoxia, present in the interior of a solid tumour, all cell lines indicated in the table above were cultivated for some months in the Ruskin Cabinet at 37° C., under a 1% O2 atmosphere. The medium was changed every three days so as to eliminate dead cells, and approximately every 10-15 days the cells were placed in the incubator under normoxia conditions for 24 hours.
(§6) Among all cells analysed, only MDA-MB231 cell line adapted to the hypoxic environment and survived. […]
(§7) The model created appears adapted for the study of plant extracts to be used in association with the classic chemotherapeutic agents. Then cells were treated with doxorubicin, with plant extracts or with their association, and cell vitality was analysed by Trypan Blue/Countess Invitrogen as described in the annexed Materials and Methods. […]

Another data set deals with ChR-MDA-MB231. Kind of data set: cells. It counts as cell-based, human. Particulars: Homo sapiens; chMDAMB231, chronic hypoxia; 24 hours; read-out: EC50 cell vitality. As to the method:
as §4, §3, §5, §6, §7

T1 sequence (P40763 whole entry): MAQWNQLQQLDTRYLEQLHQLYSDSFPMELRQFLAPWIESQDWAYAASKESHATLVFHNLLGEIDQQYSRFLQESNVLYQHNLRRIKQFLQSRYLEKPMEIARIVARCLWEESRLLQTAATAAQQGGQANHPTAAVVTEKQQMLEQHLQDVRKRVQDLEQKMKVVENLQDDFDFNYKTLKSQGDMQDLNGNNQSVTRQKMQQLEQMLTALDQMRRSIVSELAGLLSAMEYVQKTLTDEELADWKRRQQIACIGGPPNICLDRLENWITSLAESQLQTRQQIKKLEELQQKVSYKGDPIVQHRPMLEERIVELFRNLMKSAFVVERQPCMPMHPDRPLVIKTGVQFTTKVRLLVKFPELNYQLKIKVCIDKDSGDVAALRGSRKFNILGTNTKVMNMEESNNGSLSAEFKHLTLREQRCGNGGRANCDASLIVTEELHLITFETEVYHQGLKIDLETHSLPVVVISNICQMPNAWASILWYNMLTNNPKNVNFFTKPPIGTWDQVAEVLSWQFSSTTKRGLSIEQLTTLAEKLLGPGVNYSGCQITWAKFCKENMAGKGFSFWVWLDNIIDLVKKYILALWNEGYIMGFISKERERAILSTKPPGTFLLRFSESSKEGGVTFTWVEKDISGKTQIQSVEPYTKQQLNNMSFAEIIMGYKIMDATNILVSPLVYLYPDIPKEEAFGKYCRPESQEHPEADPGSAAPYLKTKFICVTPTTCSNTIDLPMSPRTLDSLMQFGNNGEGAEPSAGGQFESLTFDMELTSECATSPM

Consider `C=C(CO)C(=O)O[C@H]1CC(=C)[C@@H]2C[C@H](O)C(=C)[C@@H]2[C@H]2OC(=O)C(=C)[C@@H]21` [cynaropicrin], for which the “binding of STAT3 to DNA (EMSA)” value on STAT3 [1] was “inhibits the binding of STAT3 to DNA”; at STAT3 [5] it was “inhibit the binding of STAT3 to DNA”. The entries for the “phosphorylation of STAT3 (Western Blot)” value on STAT3 [1] and on STAT3 [5] were “inhibits the phosphorylation of STAT3” and “inhibit the phosphorylation of STAT3”, respectively. Besides, the “cell vitality (WST-1)” value in [2] (24 and 48 hours, extract 50-600 μg/ml, cynaropicrin 0-70 μM) was “inhibits cell vitality in a time-dependent and dose-dependent manner”. The “concentration of cynaropicrin for reduction of vitality equal to approximately 90%” value in data set [2] (48 hours, cynaropicrin alone) worked out at 50 µM. The “molarity of cynaropicrin necessary to reduce cell vitality below 20%, relative to that present in the artichoke extract” value in data set [3] (with cisplatinum 15 μg/ml) was “forty times greater”; in data set [3] (with doxorubicin 2 μg/ml) it was “approximately twenty-five times greater”. In the data set on GSH, the “intracellular concentration of GSH” value is “time-dependent and dose-dependent reduction of the intracellular concentration of GSH”. In addition, in the data set with STAT3 [4], the “glutathionylation of STAT3” value is “determines the glutathionylation of STAT3”.

As to `COc1cccc2c1C(=O)c1c(O)c3c(c(O)c1C2=O)C[C@@](O)(C(=O)CO)C[C@@H]3O[C@H]1C[C@H](N)[C@H](O)[C@H](C)O1` [doxorubicin], the EC50 with MDA-MB231 was determined as 0.25 µg/mL (≈ 0.46 µM); with ChR-MDA-MB231, 1 µg/mL (≈ 1.84 µM). In addition, the mortality at 0.25 ug/ml in the data set “in vitro” turned out to be 20%.
